Test results published in patent US20250250299A1, “MACROCYCLIC IMMUNOMODULATORS” (Bristol-Myers Squibb Company, priority 2022, published 2025).
Where a SMILES comes first, the peptide text is derived from it. Bridges are numbered along the chain shown (N, C = ends). [ ]: non-standard residue; d: D form. The star is where a group is joined. X1 = O=C(O)CCCCCCCCCCCCCCCCC(=O)N[C@@H](CCC(=O)NCCOCCOCCOCCOCCOCCOCCOCCOCCOCCOCCOCCn1cc(C*)nn1)C(=O)O; Phe(4-CH2NH2) = NCc1ccc(C[C@H](N)C(=O)O)cc1; Bip = N[C@@H](Cc1ccc(-c2ccccc2)cc1)C(=O)O; Phe(3-Me) = Cc1cccc(C[C@H](N)C(=O)O)c1; C12 diacid = O=C(O)CCCCCCCCCCC(=O)*; 4Pal = N[C@@H](Cc1ccncc1)C(=O)O; Cha = N[C@@H](CC1CCCCC1)C(=O)O; Carboxymethyl = O=C(O)C*; NMeA = CN[C@@H](C)C(=O)O; Orn = NCCC[C@H](N)C(=O)O; Dab = NCC[C@H](N)C(=O)O; Dap = NC[C@H](N)C(=O)O; AEEA = NCCOCCOCC(=O)O

Biological target: T1, human PD-1 (Jurkat-PD-1 cells; binding of PE-labeled human PD-L1-Ig) (Homo sapiens, UniProt Q15116)
T1 construct: expressed in transfected cells; host or cells: Jurkat (Jurkat-PD-1 / Jurkat-hPD-1)
T1 sequence (Q15116 25-288): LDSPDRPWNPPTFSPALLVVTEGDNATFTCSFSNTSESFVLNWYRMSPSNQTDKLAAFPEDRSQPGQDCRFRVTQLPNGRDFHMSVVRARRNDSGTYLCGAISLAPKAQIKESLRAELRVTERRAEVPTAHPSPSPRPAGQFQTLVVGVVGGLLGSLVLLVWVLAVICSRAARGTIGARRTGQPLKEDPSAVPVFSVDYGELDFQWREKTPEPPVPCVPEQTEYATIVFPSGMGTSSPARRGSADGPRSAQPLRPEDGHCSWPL
Assay: Jurkat-PD-1 Cell Binding High-Content Screening Assay
Conditions: Jurkat cell line over-expressing human PD-1; compound 2 h at 37° C., then PE-labeled PD-L1-Ig 20 nM final, 1 hour; read-out: Jurkat hPD1 PDL1 IC50

IC50 [nM] | Structure (SMILES)
130 | Cc1cccc(C[C@@H]2NC(=O)[C@H](CC(=O)O)NC(=O)[C@H](Cc3ccc(OCC(=O)O)cc3)NC(=O)[C@H](CCCNC(=N)N)NC(=O)CSC[C@@H](C(N)=O)NC(=O)[C@H]([C@@H](C)O)NC(=O)[C@H](C(C)C)NC(=O)[C@H](CC3CCCCC3)NC(=O)[C@H](CCN)NC(=O)[C@@H](CC(C)C)NC(=O)[C@H](C)N(C)C(=O)[C@H](CCCNC(=O)CCCCCCCCCCC(=O)O)NC(=O)[C@H](Cc3ccc(-c4ccccc4)cc3)NC(=O)[C@H](Cc3ccc(O)cc3)NC2=O)c1 [Compound 1036] ({CH2CO}-RY(Carboxymethyl)D[Phe(3-Me)]Y[Bip][Orn](C12 diacid)[NMeA][dL][Dab][Cha]VTC-NH2; thioether N-14)
120 | CC(C)C[C@H]1NC(=O)[C@H](C)N(C)C(=O)[C@H](C(C)C)NC(=O)[C@H](Cc2ccc(-c3ccccc3)cc2)NC(=O)[C@H](C(C)C)NC(=O)[C@H](Cc2c[nH]c3ccccc23)NC(=O)[C@H](CC(=O)O)NC(=O)[C@H](Cc2ccncc2)NC(=O)[C@H](Cc2ccc(CNC(=O)CCCCCCCCCCC(=O)O)cc2)NC(=O)CSC[C@@H](C(N)=O)NC(=O)[C@H](CO)NC(=O)[C@H](C(C)C)NC(=O)[C@H](CC2CCCCC2)NC(=O)[C@H](CC(N)=O)NC1=O [Compound 1037] ({CH2CO}-[Phe(4-CH2NH2)](C12 diacid)[4Pal]DWV[Bip]V[NMeA][dL]N[Cha]VSC-NH2; thioether N-14)
180 | CC(C)C[C@H]1NC(=O)[C@H](C)N(C)C(=O)[C@H](C(C)C)NC(=O)[C@H](Cc2ccc(-c3ccccc3)cc2)NC(=O)[C@H](C(C)C)NC(=O)[C@H](Cc2c[nH]c3ccccc23)NC(=O)[C@H](CC(=O)O)NC(=O)[C@H](Cc2ccc(CNC(=O)CCCCCCCCCCC(=O)O)cc2)NC(=O)[C@H](Cc2ccc(OCC(=O)O)cc2)NC(=O)CSC[C@@H](C(N)=O)NC(=O)[C@H](CO)NC(=O)[C@H](C(C)C)NC(=O)[C@H](CC2CCCCC2)NC(=O)[C@H](CC(N)=O)NC1=O [Compound 1038] ({CH2CO}-Y(Carboxymethyl)[Phe(4-CH2NH2)](C12 diacid)DWV[Bip]V[NMeA][dL]N[Cha]VSC-NH2; thioether N-14)
870 | CC(C)C[C@H]1NC(=O)[C@H](C)N(C)C(=O)[C@H](CCCCNC(=O)CCCCCCCCCCC(=O)O)NC(=O)[C@H](Cc2ccc(-c3ccccc3)cc2)NC(=O)[C@H](C(C)C)NC(=O)[C@H](Cc2c[nH]c3ccccc23)NC(=O)[C@H](CC(=O)O)NC(=O)[C@H](Cc2ccncc2)NC(=O)[C@H](Cc2ccc(OCC(=O)O)cc2)NC(=O)CSC[C@@H](C(N)=O)NC(=O)[C@H](CO)NC(=O)[C@H](C(C)C)NC(=O)[C@H](CC2CCCCC2)NC(=O)[C@H](CC(N)=O)NC1=O [Compound 1039] ({CH2CO}-Y(Carboxymethyl)[4Pal]DWV[Bip]K(C12 diacid)[NMeA][dL]N[Cha]VSC-NH2; thioether N-14)
250 | Cc1cccc(C[C@@H]2NC(=O)[C@H](CC(=O)O)NC(=O)[C@H](Cc3ccc(OCC(=O)O)cc3)NC(=O)[C@H](CN)NC(=O)CSC[C@@H](C(=O)N[C@@H](CCN)C(=O)NCCOCCOCC(N)=O)NC(=O)[C@H]([C@@H](C)O)NC(=O)[C@H](C(C)C)NC(=O)[C@H](CC3CCCCC3)NC(=O)[C@H](CCN)NC(=O)[C@@H](CC(C)C)NC(=O)[C@H](CCCN)NC(=O)[C@H](Cc3ccc(OCC(=O)O)cc3)NC(=O)[C@H](Cc3ccc(-c4ccccc4)cc3)NC(=O)[C@H](COCc3cn(CCOCCOCCOCCOCCOCCOCCOCCOCCOCCOCCOCCNC(=O)CC[C@H](NC(=O)CCCCCCCCCCCCCCCCC(=O)O)C(=O)O)nn3)NC2=O)c1 [Compound 1040] ({CH2CO}-[Dap]Y(Carboxymethyl)D[Phe(3-Me)]S(X1)[Bip]Y(Carboxymethyl)[Orn][dL][Dab][Cha]VTC[Dab][AEEA]-NH2; thioether N-14)
